# Literature values, collected in patent US20150291659A1, “SOLOMONAMIDE ANALOGUE COMPOUNDS, PHARMACEUTICALS CONTAINING SOLOMONAMIDE ANALOGUE COMPOUNDS, AND PROCESSES FOR THE PREPARATION THEREOF” (COUNCIL OF SCIENTIFIC AND INDUSTRIAL RESEARCH, priority 2012, published 2015).
# System: carrageenan induced paw edema
# Conditions: carrageenan induced paw edema model, animal-models, 100 μg/kg
smiles,measurement,value
C[C@@H]1C(=O)NCC(=O)N[C@H](C)C(=O)Nc2cc(O)ccc2C(=O)[C@H](O)[C@@H](NC(=O)[C@@H](N)CO)[C@@H]1O [Solomonamide A],reduction of inflammation,~60%
